Tested on: NSCLC cell line Calu-3
Test: Orthotopic nude rat model for lung cancer, inhaled vs IP bevacizumab, primary and maintenance treatment
Format: in vivo
Details: week 8; INH 1.5 mg/kg deposited vs IP 15 mg/kg; cisplatin IP 3 mg/kg
Experimental: NSCLC cell line Calu-3 was instilled into the lungs of X-irradiated rats by an intratracheal route, targeting […] cells per installation. For the first four weeks of the study, no treatment was administered, allowing growth of the tumor cells. Inhaled bevacizumab SDD was evaluated as a primary treatment as well as a maintenance therapy.
Cisplatin was administered by IP at 3 mg/kg. Powder was aerosolized using a rotating brush generator and delivered to the rats passively through nasal inhalation. […] Groups 1-4 were evaluated for primary efficacy after 8 weeks with lung weight as the end point. Groups 5-7 were evaluated for maintenance efficacy after 12 weeks with lung weight and survival as the end point.

Substance: Bevacizumab [IP bevacizumab]
- tumor burden, co-administered with cisplatin, inhaled vs IP bevacizumab: indistinguishable, and significantly lower than group 1 and 3
